# “Also recorded” adds a separate entry of the source.
# Assays:
# CT26 tumor [1] = experiment: BALB/c mouse CT26 tumor model, tumor volume / tumor inhibition rate; assay type: in vivo, BALB/c mice; design: Tumor Inhibition Rate (Compared with Control Group): concentration or dose not given beside the values; settings: for Tumor Inhibition Rate (Compared with Control Group): CT26 model
# Description: Female BALB/c mice aged 6-8 weeks with a body weight of approximately 20 grams were used. CT26 cells (5.0×106) dissolved in 100 μL of PBS were subcutaneously injected into BALB/c mice. When the tumor volume reached approximately 100 mm^3, the experimental animals were randomly divided into control and various treatment groups for the experiment.
# Lenvatinib was administered orally once daily at a dosage of 10 mg/kg. Hydroxyprogesterone caproate was administered via intraperitoneal injection (abbreviated as i.p. in the table below) every two days. Anti-PD-1 antibody (RMP1-14), diluted in PBS, was administered every three days at a dosage of 200 μg per mouse.
# Tumor size was measured using calipers twice a week for two-dimensional assessment. Tumor volume was calculated using the formula V=(X2Y)/2, where X and Y represent the shorter and longer diameters of the tumor, respectively, expressed in mm^3.
# CT26 tumor [2] = experiment: BALB/c mouse CT26 tumor model with anti-PD-L1 antibody 10F.9G2; assay type: in vivo, BALB/c mice; settings: anti-PD-L1 10F.9G2
# Description: Female BALB/c mice aged 6-8 weeks, weighing approximately 20 grams, were used. CT26 cells (5.0×106) dissolved in 100 μL PBS were subcutaneously injected into the BALB/c mice. When the tumor volume reached ˜100 mm^3, the experimental animals were randomly assigned to control and treatment groups, and drug administration commenced.
# Lenvatinib (Eisai, Japan) was administered orally once daily at a dose of 10 mg/kg; Hydroxyprogesterone Caproate was administered via intraperitoneal injection every two days; 10F.9G2 was administered every three days at a dose of 200 μg/mouse. Drug administration continued for approximately 20 days.
# 2) Tumor volume was measured twice a week, and its size was calculated using the formula: […]
# Renca tumor = experiment: BALB/c mouse Renca renal cell carcinoma tumor model, tumor inhibition rate; assay type: in vivo, BALB/c mice; design: Tumor Inhibition Rates (Compared with Control Group): concentration or dose not given beside the values; settings: for Tumor Inhibition Rates (Compared with Control Group): Renca model
# Description: BALB/c female mice, aged 6-8 weeks and weighing around 20 grams, were utilized. Renca cells (3.0×106) dissolved in 100 μL PBS were subcutaneously injected into the BALB/c mice. Upon reaching a tumor volume of about 70 mm^3, experimental animals were randomly distributed into control and treatment groups.
# Lenvatinib was administered orally once daily at a dosage of 7.5 mg/kg; hydroxyprogesterone caproate was administered intraperitoneally (abbreviated as i.p. in the table) every two days. Anti-PD-1 antibody (BioXCell, Supplier: Yicon (Beijing) Medical Technology Inc.) was diluted in PBS and administered every four days at a dose of 100 μg per mouse.
# Tumor size was measured biweekly using calipers for two-dimensional measurements. The volume was calculated using the formula and expressed in mm^3: V=(X^2Y)/2, where X and Y represent the shorter and longer diameters of the tumor, respectively.
# MC38/hPD-L1 tumor = experiment: Humanized PD-1 mouse MC38/hPD-L1 tumor model; assay type: in vivo, humanized PD-1 mice
# Description: Humanized PD-1 mice, female, aged 6-8 weeks, weighing approximately 20 grams, were used. MC38/hPD-L1 cells (5.0×106) dissolved in 100 μL PBS were injected subcutaneously into the humanized PD-1 mice. Upon reaching a tumor volume of approximately ˜100 mm^3, experimental animals were randomly assigned to control and various treatment groups and subsequently initiated with drug administration.
# Lenvatinib (Eisai, Japan) was administered orally once daily at a dose of 10 mg/kg. Hydroxyprogesterone Caproate was administered via intraperitoneal injection every two days. Pembrolizumab was administered every three days at a dose of 200 μg per mouse. The duration of drug administration lasted around 20 days.
# 2) Tumor volume measured twice weekly.
SMILES,"Tumor suppression effect (in words) (CT26 tumor [1]; BALB/c mouse CT26 tumor model, HPC 20 mg/kg i.p., Lenvatinib 10 mg/kg p.o., RMP1-14 200 μg/mouse)",Tumor Inhibition Rate (Compared with Control Group) (CT26 tumor [1]; Day 0),Tumor Inhibition Rate (Compared with Control Group) (CT26 tumor [1]; Day 4),Tumor Inhibition Rate (Compared with Control Group) (CT26 tumor [1]; Day 7),Tumor Inhibition Rate (Compared with Control Group) (CT26 tumor [1]; Day 11),Tumor Inhibition Rate (Compared with Control Group) (CT26 tumor [1]; Day 14),Tumor Inhibition Rate (Compared with Control Group) (CT26 tumor [1]; Day 18),Tumor Inhibition Rate (Compared with Control Group) (CT26 tumor [1]; Day 20),Anti-tumor effect (in words) (CT26 tumor [2]),Tumor suppression effect (in words) (Renca tumor; BALB/c mouse Renca tumor model),Tumor Inhibition Rates (Compared with Control Group) (Renca tumor; Day 6),Tumor Inhibition Rates (Compared with Control Group) (Renca tumor; Day 9),Tumor Inhibition Rates (Compared with Control Group) (Renca tumor; Day 13),Tumor Inhibition Rates (Compared with Control Group) (Renca tumor; Day 16),Tumor Inhibition Rates (Compared with Control Group) (Renca tumor; Day 20),Anti-tumor effect (in words) (MC38/hPD-L1 tumor)
"CCCCCC(=O)O[C@]1(C(C)=O)CC[C@H]2[C@@H]3CCC4=CC(=O)CC[C@]4(C)[C@H]3CC[C@@]21C [HPC, Hydroxyprogesterone caproate]",did not exhibit a favorable tumor suppression effect; also recorded: promoting tumor growth,0.00%,3.66%,−14.89%,−13.61%,−31.32%,−47.15%,−37.09%,did not exhibit significant tumor suppression,exhibits a certain degree of tumor suppression,0.00%,40.00%,48.51%,43.95%,56.59%,did not exhibit significant tumor inhibitory effects
COc1cc2nccc(Oc3ccc(NC(=O)NC4CC4)c(Cl)c3)c2cc1C(N)=O [Lenvatinib],,,,,,,,,,,0.00%,22.92%,48.51%,55.37%,70.68%,

# From US20250281506A1, “APPLICATION OF HYDROXYPROGESTERONE CAPROATE IN ENHANCING TUMOR TREATMENT EFFECT” (SHENZHEN EVERGREEN THERAPEUTICS CO., LTD., priority 2021, published 2025)
